Measurements from ChEMBL document CHEMBL1140912, “Extra binding region induced by non-zinc chelating inhibitors into the S1' subsite of matrix metalloproteinase 8 (MMP-8)” (J Med Chem, 2009).

Experiments:
Interstitial collagenase = target: T1, Interstitial collagenase (Homo sapiens, UniProt P03956); test: Inhibition of human recombinant MMP1
T1 sequence (P03956 whole entry): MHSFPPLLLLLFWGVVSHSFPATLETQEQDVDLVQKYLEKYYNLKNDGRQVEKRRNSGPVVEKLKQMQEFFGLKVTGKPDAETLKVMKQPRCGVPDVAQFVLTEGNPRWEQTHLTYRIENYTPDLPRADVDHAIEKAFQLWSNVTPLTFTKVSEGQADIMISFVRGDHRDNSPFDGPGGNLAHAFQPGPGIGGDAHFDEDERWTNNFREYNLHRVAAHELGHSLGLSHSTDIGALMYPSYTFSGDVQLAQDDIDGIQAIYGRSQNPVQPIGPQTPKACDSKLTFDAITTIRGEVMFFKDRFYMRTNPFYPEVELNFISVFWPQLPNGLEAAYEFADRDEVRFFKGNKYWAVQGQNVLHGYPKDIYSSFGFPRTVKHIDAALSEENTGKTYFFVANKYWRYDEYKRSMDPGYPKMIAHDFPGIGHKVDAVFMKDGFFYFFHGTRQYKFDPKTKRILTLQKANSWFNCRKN

[1] = target: 72 kDa type IV collagenase (Homo sapiens, UniProt P08253); test: Inhibition of human recombinant MMP2
Stromelysin-1 = Stromelysin-1 (Homo sapiens, UniProt P08254); test: Inhibition of human recombinant MMP3
Matrilysin = target: T2, Matrilysin (Homo sapiens, UniProt P09237); test: Inhibition of human recombinant MMP7
T2 sequence (P09237 whole entry): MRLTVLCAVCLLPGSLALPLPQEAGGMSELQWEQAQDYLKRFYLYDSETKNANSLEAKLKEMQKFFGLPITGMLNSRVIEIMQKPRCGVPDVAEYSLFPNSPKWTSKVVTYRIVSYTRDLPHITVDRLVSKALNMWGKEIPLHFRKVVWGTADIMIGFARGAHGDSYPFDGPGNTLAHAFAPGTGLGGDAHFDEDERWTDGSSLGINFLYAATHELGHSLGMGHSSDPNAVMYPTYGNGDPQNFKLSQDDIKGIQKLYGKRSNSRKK

[2] = target: Matrix metalloproteinase-9 (Homo sapiens, UniProt P14780); test: Inhibition of human recombinant MMP9
[3] = target: Macrophage metalloelastase (Homo sapiens, UniProt P39900); test: Inhibition of human recombinant MMP12
Collagenase 3 = Collagenase 3 (Homo sapiens, UniProt P45452); test: Inhibition of human recombinant MMP13
[4] = target: Matrix metalloproteinase-14 (Homo sapiens, UniProt P50281); test: Inhibition of human recombinant MMP14

Chain of Matrix metalloproteinase-9 (P14780 whole entry): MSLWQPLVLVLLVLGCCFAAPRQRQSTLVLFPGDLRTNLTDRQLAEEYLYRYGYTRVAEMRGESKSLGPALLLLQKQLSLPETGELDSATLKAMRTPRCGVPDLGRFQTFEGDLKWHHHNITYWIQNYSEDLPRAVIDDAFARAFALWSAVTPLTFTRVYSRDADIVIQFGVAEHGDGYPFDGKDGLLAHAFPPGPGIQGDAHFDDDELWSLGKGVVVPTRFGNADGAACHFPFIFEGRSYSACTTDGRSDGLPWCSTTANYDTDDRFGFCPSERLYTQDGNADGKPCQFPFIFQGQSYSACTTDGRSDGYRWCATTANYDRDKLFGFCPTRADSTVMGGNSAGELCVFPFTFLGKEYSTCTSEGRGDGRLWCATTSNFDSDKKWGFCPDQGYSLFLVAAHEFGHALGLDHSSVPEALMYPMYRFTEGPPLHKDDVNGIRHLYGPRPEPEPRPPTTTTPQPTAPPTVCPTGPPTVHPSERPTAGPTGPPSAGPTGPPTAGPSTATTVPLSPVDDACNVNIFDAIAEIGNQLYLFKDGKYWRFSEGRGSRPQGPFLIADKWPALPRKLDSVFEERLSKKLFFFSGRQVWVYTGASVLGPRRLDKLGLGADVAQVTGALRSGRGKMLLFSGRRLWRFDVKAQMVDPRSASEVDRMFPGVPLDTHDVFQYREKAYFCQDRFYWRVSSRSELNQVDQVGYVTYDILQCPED
Chain of Macrophage metalloelastase (P39900 whole entry): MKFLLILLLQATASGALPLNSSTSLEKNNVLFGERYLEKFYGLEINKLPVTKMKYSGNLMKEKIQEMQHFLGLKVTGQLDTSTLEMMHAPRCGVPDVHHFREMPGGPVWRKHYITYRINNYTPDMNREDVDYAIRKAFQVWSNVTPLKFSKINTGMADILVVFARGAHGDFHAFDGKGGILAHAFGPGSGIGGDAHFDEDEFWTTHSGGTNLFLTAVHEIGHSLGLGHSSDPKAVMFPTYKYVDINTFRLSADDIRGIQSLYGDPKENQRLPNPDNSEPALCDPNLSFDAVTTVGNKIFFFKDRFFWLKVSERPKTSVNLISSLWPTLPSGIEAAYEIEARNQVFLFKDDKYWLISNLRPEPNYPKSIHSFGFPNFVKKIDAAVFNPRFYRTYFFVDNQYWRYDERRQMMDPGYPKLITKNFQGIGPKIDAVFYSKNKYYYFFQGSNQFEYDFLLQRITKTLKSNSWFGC
Chain of 72 kDa type IV collagenase (P08253 whole entry): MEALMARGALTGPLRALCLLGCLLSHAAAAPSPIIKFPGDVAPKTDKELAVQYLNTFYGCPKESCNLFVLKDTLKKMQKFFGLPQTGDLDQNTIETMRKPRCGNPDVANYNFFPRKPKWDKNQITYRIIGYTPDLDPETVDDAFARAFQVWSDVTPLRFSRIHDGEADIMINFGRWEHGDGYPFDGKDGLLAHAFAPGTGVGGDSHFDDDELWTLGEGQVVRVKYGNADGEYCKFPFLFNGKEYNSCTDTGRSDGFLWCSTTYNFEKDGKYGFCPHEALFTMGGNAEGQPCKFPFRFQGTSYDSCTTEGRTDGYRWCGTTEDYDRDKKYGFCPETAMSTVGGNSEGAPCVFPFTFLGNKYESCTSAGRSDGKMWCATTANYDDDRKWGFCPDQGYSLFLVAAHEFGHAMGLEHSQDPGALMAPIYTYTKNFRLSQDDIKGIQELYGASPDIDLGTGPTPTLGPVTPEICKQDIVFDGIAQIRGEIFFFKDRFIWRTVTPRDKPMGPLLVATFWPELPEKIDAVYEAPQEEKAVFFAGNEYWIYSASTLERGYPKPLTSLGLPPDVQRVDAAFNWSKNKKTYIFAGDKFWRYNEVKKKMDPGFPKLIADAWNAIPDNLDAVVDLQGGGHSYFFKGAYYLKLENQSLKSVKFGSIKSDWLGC
Chain of Stromelysin-1 (P08254 whole entry): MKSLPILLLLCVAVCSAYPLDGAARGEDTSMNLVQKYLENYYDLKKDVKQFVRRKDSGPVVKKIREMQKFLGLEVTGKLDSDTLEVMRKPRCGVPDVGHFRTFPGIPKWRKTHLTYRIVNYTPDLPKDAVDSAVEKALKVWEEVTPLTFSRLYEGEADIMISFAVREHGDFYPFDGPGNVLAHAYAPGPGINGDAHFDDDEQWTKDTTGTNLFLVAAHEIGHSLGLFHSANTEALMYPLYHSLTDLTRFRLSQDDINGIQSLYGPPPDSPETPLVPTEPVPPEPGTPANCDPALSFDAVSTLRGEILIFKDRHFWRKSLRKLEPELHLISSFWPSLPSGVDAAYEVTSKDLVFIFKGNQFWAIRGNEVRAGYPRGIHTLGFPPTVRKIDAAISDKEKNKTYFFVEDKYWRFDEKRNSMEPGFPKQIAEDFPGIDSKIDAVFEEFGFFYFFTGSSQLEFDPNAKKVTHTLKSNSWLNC

`NC(=O)CC1CCCc2sc3nc(C(=O)NCc4ccc5c(c4)NC(=O)CO5)[nH]c(=O)c3c21` (racemic) was tested, and the IC50 (Interstitial collagenase) was greater than 10 µM, the IC50 [1] was greater than 10 µM and the IC50 (Stromelysin-1) was greater than 2.5 µM. The IC50 (Matrilysin) was greater than 10 µM, the IC50 [2] was greater than 10 µM and the IC50 [3] was greater than 10 µM. For the same compound, the IC50 (Collagenase 3) was less than 0.025 µM and the IC50 [4] was greater than 10 µM.
